What follows are compounds tested against T1, T cell α4β7 integrin (Homo sapiens, UniProt P13612+P26010) (assay: Human MAdCAM-1/α4β7 integrin binding inhibitory activity evaluation test in whole human blood). Settings: recombinant human MAdCAM-1/Fc, CD4 positive cells, flow cytometry.
T1 construct: Blood samples were obtained from healthy volunteers' blood donation; endogenous in cells; host or cells: CD4-positive T cells in whole blood of healthy human volunteers
T1 sequence (P13612 34-1032): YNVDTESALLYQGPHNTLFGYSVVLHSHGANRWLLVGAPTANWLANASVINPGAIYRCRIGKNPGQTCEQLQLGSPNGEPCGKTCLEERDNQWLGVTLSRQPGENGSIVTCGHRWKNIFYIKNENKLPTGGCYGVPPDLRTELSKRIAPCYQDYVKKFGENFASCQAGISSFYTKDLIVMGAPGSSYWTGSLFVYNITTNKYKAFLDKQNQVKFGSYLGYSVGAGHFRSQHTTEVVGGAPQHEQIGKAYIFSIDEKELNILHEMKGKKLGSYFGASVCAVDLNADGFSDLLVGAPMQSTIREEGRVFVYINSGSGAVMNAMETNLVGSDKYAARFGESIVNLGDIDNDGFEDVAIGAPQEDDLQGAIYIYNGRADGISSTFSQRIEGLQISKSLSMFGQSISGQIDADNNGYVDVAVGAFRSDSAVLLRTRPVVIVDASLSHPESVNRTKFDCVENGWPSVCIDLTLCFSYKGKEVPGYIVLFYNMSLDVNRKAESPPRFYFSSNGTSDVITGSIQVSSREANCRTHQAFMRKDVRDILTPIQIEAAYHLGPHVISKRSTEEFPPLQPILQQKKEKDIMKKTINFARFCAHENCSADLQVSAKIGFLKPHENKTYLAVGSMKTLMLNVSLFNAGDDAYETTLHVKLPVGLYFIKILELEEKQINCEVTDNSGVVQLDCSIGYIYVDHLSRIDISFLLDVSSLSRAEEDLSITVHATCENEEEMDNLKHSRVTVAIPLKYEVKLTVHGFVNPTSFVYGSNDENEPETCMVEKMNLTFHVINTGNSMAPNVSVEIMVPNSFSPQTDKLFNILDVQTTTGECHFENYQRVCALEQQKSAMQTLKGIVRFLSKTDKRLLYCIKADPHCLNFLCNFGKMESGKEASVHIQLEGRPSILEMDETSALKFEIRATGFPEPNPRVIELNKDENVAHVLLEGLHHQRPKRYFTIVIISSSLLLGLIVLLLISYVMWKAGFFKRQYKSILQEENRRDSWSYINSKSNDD
T1 sequence (P26010 20-798): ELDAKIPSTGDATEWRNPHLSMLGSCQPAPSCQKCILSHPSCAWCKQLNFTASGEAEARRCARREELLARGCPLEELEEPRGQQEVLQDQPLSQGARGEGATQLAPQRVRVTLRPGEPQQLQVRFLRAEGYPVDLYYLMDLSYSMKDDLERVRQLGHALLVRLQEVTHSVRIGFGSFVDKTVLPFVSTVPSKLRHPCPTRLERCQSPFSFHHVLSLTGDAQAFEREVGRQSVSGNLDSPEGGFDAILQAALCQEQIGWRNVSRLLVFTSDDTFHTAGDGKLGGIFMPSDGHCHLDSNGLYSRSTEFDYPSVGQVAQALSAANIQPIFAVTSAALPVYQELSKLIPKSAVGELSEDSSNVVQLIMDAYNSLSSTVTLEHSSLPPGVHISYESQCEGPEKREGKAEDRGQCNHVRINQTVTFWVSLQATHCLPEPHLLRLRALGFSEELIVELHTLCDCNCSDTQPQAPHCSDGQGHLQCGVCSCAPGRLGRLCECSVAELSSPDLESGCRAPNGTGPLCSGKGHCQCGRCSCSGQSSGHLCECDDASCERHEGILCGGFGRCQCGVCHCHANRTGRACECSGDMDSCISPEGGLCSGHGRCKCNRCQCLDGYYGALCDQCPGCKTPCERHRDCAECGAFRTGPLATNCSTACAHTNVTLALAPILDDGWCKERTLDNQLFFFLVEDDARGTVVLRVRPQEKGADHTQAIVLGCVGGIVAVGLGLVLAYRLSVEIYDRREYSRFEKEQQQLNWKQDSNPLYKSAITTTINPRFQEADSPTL
Format: cell-based
Procedure: Human MAdCAM-1/α4β7 Integrin Binding Inhibitory Activity Evaluation Test in Whole Human Blood
Each test substance was measured in terms of the inhibitory activity of binding of T cell α4β7 integrin and MAdCAM-1 in human whole blood. Blood samples were obtained from healthy volunteers' blood donation.
A 4 mM MnCl2 solution and each of dilutions of various test substances were added to human whole blood, followed by incubation for 10 minutes. Recombinant human MAdCAM-1/Fc (R&D Systems) at 10 μg/mL was added, and each test sample taken in a total amount of 50 μL was incubated for 30 minutes. Then, 950 μL of Lyse/Fix (BD Biosciences) was added to allow hemolysis and fixation to proceed at 37° C. for 10 minutes. After centrifugation for 5 minutes, the supernatant was removed and 600 μL of a RPMI-1640 medium supplemented with 10% inactivated fetal bovine serum (hereinafter referred to as the medium) was added, followed by centrifugation for 5 minutes, removal of the supernatant, and then washing. The test sample was washed again with the medium, and then 2.5 μg/mL Mouse Anti-MAdCAM-1 antibody (Invitrogen) was added, followed by incubation for 30 minutes or more. After the test sample was washed with the medium, 3.4 μg/mL Goat Anti-Mouse IgG H&L, FITC (Abcam) was added, followed by incubation for 30 minutes or more. After the test sample was washed with the medium, 0.15 μg/mL PE Rat Anti-Mouse CD4 (BD Pharmigen) was added, followed by incubation for 30 minutes or more. After the test sample was washed with the medium, a ratio of MAdCAM-1 positive cells to CD4 positive cells was measured by using flow cytometry.
From independent test results using different blood samples of two to three persons, a MAdCAM-1 binding inhibiting rate of each test substance at each of various concentrations was obtained under the setting in which, among wells containing no test substances, a well containing no ligand was scored at 100% inhibition and a well containing ligand was scored at 0% inhibition, and then a concentration IC50 which brought about 50% binding inhibition was calculated.

Going from `Cc1cn(C)c(=O)n(-c2ccc(C[C@H](NC(=O)c3cc(F)c(NS(=O)(=O)c4ccc(NC(=O)C(C)(C)C)cc4)cc3F)C(=O)O)cn2)c1=O` [Compound A54] to `Cc1cn(C)c(=O)n(-c2ccc(C[C@H](NC(=O)c3cc(F)c(NS(=O)(=O)c4ccc(NC(=O)C(C)(C)CO)cc4)cc3F)C(=O)O)cn2)c1=O` [Compound A63], the IC50 rises from 2 nM to 4.8 nM (2.4-fold).

`Cc1cn(C)c(=O)n(-c2ccc(C[C@H](NC(=O)c3cc(F)c(NS(=O)(=O)c4ccc(NC(=O)C(C)(C)C(F)(F)F)cc4)cc3F)C(=O)O)cn2)c1=O` [Compound A58] and `Cn1cc(C(F)(F)F)c(=O)n(-c2ccc(C[C@H](NC(=O)c3cc(F)c(NS(=O)(=O)c4ccc(NC(=O)C(C)(C)C)cc4)cc3F)C(=O)O)cn2)c1=O` [Compound A67] are within 1.5-fold of each other in IC50: 5.1 nM for the first, 5.7 nM for the second.

First: Cc1cc(=O)n(-c2ccc(C[C@H](NC(=O)c3cc(F)c(NS(=O)(=O)c4ccc(NC(=O)C(C)(C)C)cc4)cc3F)C(=O)O)cn2)c(=O)n1C [Compound A45]
Second: Cn1ccc(=O)n(-c2ccc(C[C@H](NC(=O)c3cc(F)c(NS(=O)(=O)c4ccc(NC(=O)C(C)(C)C)cc4)cc3F)C(=O)O)cn2)c1=O [Compound A53]
The IC50 of the first is 1.9-fold lower: 1.5 nM for the first, 2.9 nM for the second.

`CN1CCC(=O)N(c2ccc(C[C@H](NC(=O)c3cc(F)c(NS(=O)(=O)c4ccc(NC(=O)C(C)(C)C)cc4)cc3F)C(=O)O)cn2)C1=O` [Compound A75, (2S)-2-[2,5-difluoro-4-[(4-pivalamidophenyl)sulfonamide]benzamido]-3-[6-(3-methyl-2,6-dioxotetrahydropyrimidin-1(2H)-yl)pyridin-3-yl]propanoic acid] and `Cc1cn(C)c(=O)n(-c2ccc(C[C@H](NC(=O)c3cc(F)c(NS(=O)(=O)c4ccc(NC(=O)C5(C(F)(F)F)CC5)cc4)cc3F)C(=O)O)cn2)c1=O` [Compound A56] are within 1.5-fold of each other in IC50: 5.6 nM for the first, 5.4 nM for the second.

From patent US10562898B2, “Substituted benzenesulfonamides as inhibitors of alpha-4 beta-7 integrin activity” (EA PHARMA CO., LTD., priority 2016, dated 2020)
